Data from ChEMBL document CHEMBL1155301, “Optimization of the aminopyridopyrazinones class of PDE5 inhibitors: discovery of 3-[(trans-4-hydroxycyclohexyl)amino]-7-(6-methoxypyridin-3-yl)-1-(2-propoxyethyl)pyrido[3,4-b]pyrazin-2(1H)-one” (Bioorg Med Chem Lett, 2009).
pIC50: −log10 of the molar value. Values joined by “and” are separate entries in the source; they are usually repeats but may differ in a detail not shown here. Equal values may be shown once. Active and inactive are the calls of the source. No cut-off for these calls is given here.

Columns and labels:
[1] = molecular target: Rod cGMP-specific 3',5'-cyclic phosphodiesterase subunit alpha (Homo sapiens, UniProt P16499); experiment: Inhibition of PDE6
Chain of Rod cGMP-specific 3',5'-cyclic phosphodiesterase subunit alpha (P16499 whole entry): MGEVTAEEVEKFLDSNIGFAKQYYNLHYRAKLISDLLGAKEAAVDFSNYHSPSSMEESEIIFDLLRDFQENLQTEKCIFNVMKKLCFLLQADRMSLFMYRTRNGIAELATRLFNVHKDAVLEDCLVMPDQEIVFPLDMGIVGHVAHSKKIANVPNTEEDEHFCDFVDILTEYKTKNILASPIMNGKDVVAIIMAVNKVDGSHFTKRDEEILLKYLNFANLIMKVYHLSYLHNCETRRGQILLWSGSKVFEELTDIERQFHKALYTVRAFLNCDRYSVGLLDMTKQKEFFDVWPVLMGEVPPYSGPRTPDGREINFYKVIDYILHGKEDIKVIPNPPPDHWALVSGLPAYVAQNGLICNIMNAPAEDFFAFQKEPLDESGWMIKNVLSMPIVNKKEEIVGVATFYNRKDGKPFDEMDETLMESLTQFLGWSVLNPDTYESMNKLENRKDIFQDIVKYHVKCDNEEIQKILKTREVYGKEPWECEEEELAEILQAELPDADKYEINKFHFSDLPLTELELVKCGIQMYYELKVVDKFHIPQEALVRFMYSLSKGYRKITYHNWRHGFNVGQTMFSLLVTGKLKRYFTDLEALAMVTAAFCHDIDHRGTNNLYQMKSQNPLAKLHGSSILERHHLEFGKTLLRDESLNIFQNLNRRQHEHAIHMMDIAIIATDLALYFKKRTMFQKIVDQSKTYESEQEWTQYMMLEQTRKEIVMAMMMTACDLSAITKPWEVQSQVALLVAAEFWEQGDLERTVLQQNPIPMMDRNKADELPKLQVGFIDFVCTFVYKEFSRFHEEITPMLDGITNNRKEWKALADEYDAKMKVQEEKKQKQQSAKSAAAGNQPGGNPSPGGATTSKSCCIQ

[2] = molecular target: cGMP-specific 3',5'-cyclic phosphodiesterase (Homo sapiens, UniProt O76074); experiment: Inhibition of PDE5
[3] = Clearance in rat at 2 mg/kg, po and 2 mg/kg, iv; assay type: ADME, organism-based; conditions: in vivo
[4] = Oral bioavailability in rat at 2 mg/kg; assay type: ADME, organism-based; conditions: in vivo
[5] = Half life in rat at 2 mg/kg, po and 2 mg/kg, iv; assay type: ADME, organism-based; conditions: in vivo
[6] = Volume of distribution in rat at 2 mg/kg, iv and 2 mg/kg, po; assay type: ADME, organism-based; conditions: in vivo
[7] = Volume of distribution in dog at 2 mg/kg, iv and 2 mg/kg, po; assay type: ADME, organism-based, Canis lupus familiaris; conditions: in vivo
[8] = Selectivity ratio of IC50 for PDE5 to IC50 for PDE6
[9] = Half life in dog at 2 mg/kg, po and 2 mg/kg, iv; assay type: ADME, organism-based, Canis lupus familiaris; conditions: in vivo
[10] = Clearance in dog at 2 mg/kg, po and 2 mg/kg, iv; assay type: ADME, organism-based, Canis lupus familiaris; conditions: in vivo
[11] = Oral bioavailability in dog at 2 mg/kg; assay type: ADME, organism-based, Canis lupus familiaris; conditions: in vivo
[12] = test system: Rattus norvegicus; experiment: Antihypertensive activity against telemeterized rat at 10 mg/kg, po; assay type: functional, organism-based; parameters: dose 10 mg/kg

SMILES	pIC50 [1]	pIC50 [2]	also measured
CCCOCCn1c(=O)c(NCCCO)nc2ncc(-c3ccc(OC)nc3)cc21	6.91	9.15	–
CCCOCCn1c(=O)c(NCc2cnccn2)nc2cnc(-c3ccc(OC)nc3)cc21	8.33	10.22	–
CCCOCCn1c(=O)c(NCC(=O)N2CCC(O)CC2)nc2cnc(-c3ccc(OC)nc3)cc21	7.61	9.89	clearance [3]: 10.5 mL/min/kg; bioavailability [4]: 52%; half-life [5]: 1.7 h; Vd [6]: 1 L/kg
CCCOCCn1c(=O)c(N[C@H]2CC[C@H](O)CC2)nc2ncc(-c3ccc(OC)nc3)cc21	7.82	9.49	–
CCCOCCn1c(=O)c(NCc2ccccn2)nc2ncc(-c3ccc(OC)nc3)cc21	7.46	9.44	–
CCCOCCn1c(=O)c(N[C@H](CC)CO)nc2cnc(-c3ccc(OC)nc3)cc21	7.63	9.60	clearance [3]: 22.6 mL/min/kg; bioavailability [4]: 61%; half-life [5]: 1.8 h; Vd [6]: 2.4 L/kg
CCCOCCn1c(=O)c(NCC(=O)N(C)C)nc2cnc(-c3ccc(OC)nc3)cc21	7.06	9.17	Vd [7]: 0.4 L/kg; clearance [3]: 27 mL/min/kg; bioavailability [4]: 52%; Ratio IC50 [8]: 97; half-life [9]: 4.3 h; clearance [10]: 1.8 mL/min/kg; half-life [5]: 0.6 h; bioavailability [11]: 30%; Vd [6]: 0.9 L/kg; Activity [12]: Active
CCCOCCn1c(=O)c(NCC(=O)O)nc2cnc(-c3ccc(OC)nc3)cc21	7.34	8.98	Ratio IC50 [8]: 43 and 30; Activity [12]: inactive
CCCOCCn1c(=O)c(N[C@H](C)CO)nc2cnc(-c3ccc(OC)nc3)cc21	7.75	9.85	–
CCCOCCn1c(=O)c(NCC(=O)N2CCOCC2)nc2ncc(-c3ccc(OC)nc3)cc21	6.94	8.93	Vd [7]: 0.9 L/kg; clearance [3]: 18 mL/min/kg; bioavailability [4]: 51%; half-life [9]: 0.9 h; clearance [10]: 16.7 mL/min/kg; half-life [5]: 0.8 h; bioavailability [11]: 32%; Vd [6]: 0.8 L/kg
CCCOCCn1c(=O)c(NCC(=O)N2CCN(C)CC2)nc2ncc(-c3ccc(OC)nc3)cc21	7.10	9.49	–
CCCOCCn1c(=O)c(NCC(=O)NC)nc2cnc(-c3ccc(OC)nc3)cc21	7.82	10.15	–
CCCOCCn1c(=O)c(N[C@@H](C)CO)nc2cnc(-c3ccc(OC)nc3)cc21	7.75	9.62	–
CCCOCCn1c(=O)c(NCCN(C)C)nc2ncc(-c3ccc(OC)nc3)cc21	5.80	8.40	–
CCCOCCn1c(=O)c(NCCNCCO)nc2cnc(-c3ccc(OC)nc3)cc21	6.57	8.96	clearance [3]: 170 mL/min/kg; bioavailability [4]: 53%; Activity [12]: Active
CCCOCCn1c(=O)c(NCC(=O)NC)nc2ncc(-c3ccc(OC)nc3)cc21	6.94	9.37	Vd [7]: 1.3 L/kg; clearance [3]: 19.5 mL/min/kg; bioavailability [4]: 39%; half-life [9]: 2.4 h; clearance [10]: 8.8 mL/min/kg; half-life [5]: 0.8 h; bioavailability [11]: 52%; Vd [6]: 1 L/kg
CCCOCCn1c(=O)c(NCC(=O)N2CCN(C)CC2)nc2cnc(-c3ccc(OC)nc3)cc21	7.83	10.15	–
CCCOCCn1c(=O)c(NCc2ccccn2)nc2cnc(-c3ccc(OC)nc3)cc21	7.97	10.40	clearance [3]: 21.9 mL/min/kg; bioavailability [4]: 54%; Activity [12]: Active
CCCOCCn1c(=O)c(NCC2CCCO2)nc2cnc(-c3ccc(OC)nc3)cc21 (racemic)	8.07	10.30	clearance [3]: 52 mL/min/kg; Activity [12]: Active
CCCOCCn1c(=O)c(NCC(=O)N2CCOCC2)nc2cnc(-c3ccc(OC)nc3)cc21	7.79	9.82	Vd [7]: 1.2 L/kg; clearance [3]: 9.1 mL/min/kg; bioavailability [4]: 35%; half-life [9]: 3.9 h; clearance [10]: 5.3 mL/min/kg; half-life [5]: 0.8 h; bioavailability [11]: 32%; Vd [6]: 0.5 L/kg
CCCOCCn1c(=O)c(NCC2CCOCC2)nc2ncc(-c3ccc(OC)nc3)cc21	7.50	9.85	clearance [3]: 30 mL/min/kg; bioavailability [4]: 15%; Activity [12]: Active

SMILES	pIC50 [1]	pIC50 [2]	also measured
CCCOCCn1c(=O)c(NCCN)nc2ncc(-c3ccc(OC)nc3)cc21	< 5.70	7.79	–
CCCOCCn1c(=O)c(NCC(N)=O)nc2ncc(-c3ccc(OC)nc3)cc21	6.40	8.59	–
CCCOCCn1c(=O)c(NC[C@H](C)O)nc2ncc(-c3ccc(OC)nc3)cc21	7.29	9.47	–
CCCOCCn1c(=O)c(NCCOCC)nc2ncc(-c3ccc(OC)nc3)cc21	7.24	9.77	Activity [12]: inactive
CCCOCCn1c(=O)c(NCC(=O)N2CCN(CC)CC2)nc2ncc(-c3ccc(OC)nc3)cc21	7.00	9.42	–
CCCOCCn1c(=O)c(NCCN)nc2cnc(-c3ccc(OC)nc3)cc21	5.92	9.60	–
CCCOCCn1c(=O)c(NCC(=O)N(C)C)nc2ncc(-c3ccc(OC)nc3)cc21	6.40	8.59	Vd [7]: 1.2 L/kg; clearance [3]: 33 mL/min/kg; bioavailability [4]: 46%; half-life [9]: 2.1 h; clearance [10]: 9.4 mL/min/kg; half-life [5]: 0.6 h; bioavailability [11]: 32%; Vd [6]: 1.1 L/kg; Activity [12]: Active
CCCOCCn1c(=O)c(N[C@@H](C)CO)nc2ncc(-c3ccc(OC)nc3)cc21	7.17	9.26	–
CCCOCCn1c(=O)c(NCCO)nc2cnc(-c3ccc(OC)nc3)cc21	7.58	9.05	Ratio IC50 [8]: 30; Activity [12]: inactive
CCCOCCn1c(=O)c(NCCN(C)C)nc2cnc(-c3ccc(OC)nc3)cc21	6.58	9.11	–
CCCOCCn1c(=O)c(NCCOCC)nc2cnc(-c3ccc(OC)nc3)cc21	8.03	9.96	–
CCCOCCn1c(=O)c(NCC(=O)N2CCN(CC)CC2)nc2cnc(-c3ccc(OC)nc3)cc21	7.25	9.89	Vd [7]: 8 L/kg; clearance [3]: 28 mL/min/kg; bioavailability [4]: 61%; half-life [9]: 3.5 h; clearance [10]: 37 mL/min/kg; half-life [5]: 1.4 h; bioavailability [11]: 15%; Vd [6]: 2.3 L/kg
CCCOCCn1c(=O)c(N[C@H](C)CO)nc2ncc(-c3ccc(OC)nc3)cc21	7.20	9.06	–
CCCOCCn1c(=O)c(NCC(N)=O)nc2cnc(-c3ccc(OC)nc3)cc21	7.06	9.17	–
CCCOCCn1c(=O)c(NCc2cnccn2)nc2ncc(-c3ccc(OC)nc3)cc21	7.63	9.55	Activity [12]: Active
CCCOCCn1c(=O)c(NC[C@@H](C)O)nc2ncc(-c3ccc(OC)nc3)cc21	7.30	9.27	–
CCCOCCn1c(=O)c(NCC(=O)O)nc2ncc(-c3ccc(OC)nc3)cc21	6.24	8.53	–
CCCOCCn1c(=O)c(NCC(=O)N2CCNCC2)nc2cnc(-c3ccc(OC)nc3)cc21	7.00	8.78	–
CCCOCCn1c(=O)c(NCC(=O)N2CCCC2)nc2cnc(-c3ccc(OC)nc3)cc21	7.40	10.10	–
CCCOCCn1c(=O)c(NCCO)nc2ncc(-c3ccc(OC)nc3)cc21	6.94	8.93	Ratio IC50 [8]: 97; Activity [12]: Active
CCCOCCn1c(=O)c(NC[C@@H](C)O)nc2cnc(-c3ccc(OC)nc3)cc21	7.82	10.00	–
